Source: article PMC6072243 (ACS Omega, 2018)

Experiments:
p38α MAPK = p38α MAPK (Homo sapiens, UniProt Q16539); assay: p38α MAPK enzyme-linked immunosorbent assay; format: biochemical; details: for inhibition at 10 µM: read-out: Percent inhibition of p38α MAPK at indicated concentration
JNK3 = JNK3 (Homo sapiens, UniProt P53779); assay: JNK3 enzyme-linked immunosorbent assay; format: biochemical
[1] = 2-methylaminothiazole versus 2-sulfanylimidazole (compound 5)

Sequence of p38α MAPK (Q16539 whole entry): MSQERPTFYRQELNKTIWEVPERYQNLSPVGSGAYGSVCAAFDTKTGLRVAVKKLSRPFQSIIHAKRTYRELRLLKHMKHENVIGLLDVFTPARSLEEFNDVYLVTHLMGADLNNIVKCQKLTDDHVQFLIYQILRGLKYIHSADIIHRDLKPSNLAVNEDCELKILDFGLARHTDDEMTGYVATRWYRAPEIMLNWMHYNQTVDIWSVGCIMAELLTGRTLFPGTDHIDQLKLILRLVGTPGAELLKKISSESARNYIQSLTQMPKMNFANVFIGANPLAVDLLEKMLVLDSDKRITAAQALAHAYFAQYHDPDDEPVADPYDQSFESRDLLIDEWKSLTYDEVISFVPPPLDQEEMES
Sequence of JNK3 (P53779 whole entry): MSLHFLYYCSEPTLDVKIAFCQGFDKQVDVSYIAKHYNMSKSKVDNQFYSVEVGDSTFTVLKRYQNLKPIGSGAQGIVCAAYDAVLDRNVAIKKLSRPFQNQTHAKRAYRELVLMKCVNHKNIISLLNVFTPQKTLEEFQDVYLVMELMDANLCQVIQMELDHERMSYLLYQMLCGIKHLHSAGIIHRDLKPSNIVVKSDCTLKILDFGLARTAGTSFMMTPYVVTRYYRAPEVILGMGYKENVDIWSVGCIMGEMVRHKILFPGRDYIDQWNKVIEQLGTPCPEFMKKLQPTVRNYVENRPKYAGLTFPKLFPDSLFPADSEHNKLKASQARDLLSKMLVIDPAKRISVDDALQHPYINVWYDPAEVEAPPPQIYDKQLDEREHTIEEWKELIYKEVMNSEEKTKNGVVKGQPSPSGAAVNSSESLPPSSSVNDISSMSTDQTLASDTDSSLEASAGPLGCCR

| SMILES | IC50 (p38α MAPK) [nM] | inhibition at 10 µM (p38α MAPK) [%] | IC50 (JNK3) [nM] | fold higher activity for p38α MAPK than for JNK3 (p38α MAPK; ratio of IC50 values) [fold] | inhibition at 10 µM (JNK3; read-out: Percent inhibition of JNK3 at indicated concentration) [%] | fold increase in inhibitory activity for JNK3 (JNK3; [1]) [fold] | fold increase in inhibitory activity for p38α MAPK (p38α MAPK; [1]) [fold] |
| --- | --- | --- | --- | --- | --- | --- | --- |
| CCc1nc[nH]c1-c1ccnc(Nc2ccc(N3CCOCC3)cc2)c1 [Compound 39, 4-(4-Ethyl-1H-imidazol-5-yl)-N-(4-morpholinophenyl)pyridin-2-amine] | > 10000 | 34 | – | – | – | – | – |
| Brc1ccccc1-c1nc[nH]c1-c1ccnc(Nc2ccc(N3CCOCC3)cc2)c1 [Compound 18c, 4-(4-(2-Bromophenyl)-1H-imidazol-5-yl)-N-(4-morpholinophenyl)pyridin-2-amine] | 61 ± 2 | – | 131 ± 21 | – | – | – | – |
| Cn1cc(-c2nc[nH]c2-c2ccnc(Nc3ccc(N4CCOCC4)cc3)c2)cn1 [Compound 18f, 4-(4-(1-Methyl-1H-pyrazol-4-yl)-1H-imidazol-5-yl)-N-(4-morpholinophenyl)pyridin-2-amine] | 3260 | – | 758 ± 49 | – | – | – | – |
| CC(C)c1nc[nH]c1-c1ccnc(Nc2ccc(N3CCOCC3)cc2)c1 [Compound 18l, 4-(4-Isopropyl-1H-imidazol-5-yl)-N-(4-morpholinophenyl)pyridin-2-amine] | 10000 | 50 | 2830 | – | – | – | – |
| CSc1nc(C)c(-c2ccnc(Nc3ccc(N4CCOCC4)cc3)c2)n1C [Compound 57, 4-(1,4-Dimethyl-2-(methylthio)-1H-imidazol-5-yl)-N-(4-morpholinophenyl)pyridin-2-amine] | > 10000 | 10 | 2510 | – | – | – | – |
| c1ccc2cc(-c3nc[nH]c3-c3ccnc(Nc4ccc(N5CCOCC5)cc4)c3)ccc2c1 [Compound 18e, N-(4-Morpholinophenyl)-4-(4-(naphthalen-2-yl)-1H-imidazol-5-yl)pyridin-2-amine] | 16 ± 3 | – | 31 ± 3 | – | – | – | – |
| Clc1ccccc1-c1nc[nH]c1-c1ccnc(Nc2ccc(N3CCOCC3)cc2)c1 [Compound 18b, 4-(4-(2-Chlorophenyl)-1H-imidazole-5-yl)-N-(4-morpholinophenyl)pyridin-2-amine] | 38 ± 2 | – | 60 ± 8 | – | – | – | – |
| Cc1[nH]c(N)nc1-c1ccnc(Nc2ccc(N3CCOCC3)cc2)c1 [Compound 47, 4-(2-Amino-5-methyl-1H-imidazol-4-yl)-N-(4-morpholinophenyl)pyridin-2-amine] | > 10000 | 43 | – | – | – | – | – |
| Fc1ccc(-n2cncc2-c2ccnc(Nc3ccc(N4CCOCC4)cc3)c2)cc1 [Compound 66, 4-(1-(4-Fluorophenyl)-1H-imidazol-5-yl)-N-(4-morpholinophenyl)pyridin-2-amine] | 323 ± 14 | – | 276 ± 10 | – | – | – | – |
| CCn1c(SC)nc(C)c1-c1ccnc(Nc2ccc(N3CCOCC3)cc2)c1 [Compound 58, 4-(1-Ethyl-4-methyl-2-(methylthio)-1H-imidazol-5-yl)-N-(4-morpholinophenyl)pyridin-2-amine] | > 10000 | 21 | 2090 | – | – | – | – |
| FC(F)(F)c1cccc(-c2nc[nH]c2-c2ccnc(Nc3ccc(N4CCOCC4)cc3)c2)c1 [Compound 18d, N-(4-Morpholinophenyl)-4-(4-(3-(trifluoromethyl)phenyl)-1H-imidazol-5-yl)pyridin-2-amine] | 22 ± 3 | – | 143 ± 12 | 6 | – | – | – |
| Cn1ccnc1-c1ccnc(Nc2ccc(N3CCOCC3)cc2)c1 [Compound 71, 4-(1-Methyl-1H-imidazol-2-yl)-N-(4-morpholinophenyl)pyridin-2-amine] | > 10000 | 15 | > 10000 | – | 42 | – | – |
| Cn1cncc1-c1ccnc(Nc2ccc(N3CCOCC3)cc2)c1 [Compound 67, 4-(1-Methyl-1H-imidazol-5-yl)-N-(4-morpholinophenyl)pyridin-2-amine] | > 10000 | 32 | 714 ± 21 | – | – | – | – |
| CSc1nc(-c2ccnc(Nc3ccc(N4CCOCC4)cc3)c2)c(C)n1C [Compound 50, 4-(1,5-Dimethyl-2-(methylthio)-1H-imidazol-4-yl)-N-(4-morpholinophenyl)pyridin-2-amine] | > 10000 | 37 | 1280 | – | – | – | – |
| CNc1nc(-c2ccnc(Nc3ccc(N4CCOCC4)cc3)c2)c(C)s1 [Compound 78, N,5-Dimethyl-4-(2-((4-morpholinophenyl)amino)pyridin-4-yl)thiazol-2-amine] | > 10000 | 9 | 2500 | – | – | – | – |
| O=c1[nH]c(-c2ccc(F)cc2)c(-c2ccnc(Nc3ccc(N4CCOCC4)cc3)c2)[nH]1 [Compound 8, 4-(4-Fluorophenyl)-5-(2-((4-morpholinophenyl)amino)pyridin-4-yl)-1,3-dihydro-2H-imidazol-2-one] | 34 ± 4 | – | 142 ± 28 | – | – | – | – |
| CNc1nc(-c2ccc(F)cc2)c(-c2ccnc(Nc3ccc(N4CCOCC4)cc3)c2)s1 [Compound 75, 4-(4-Fluorophenyl)-N-methyl-5-(2-((4-morpholinophenyl)amino)pyridin-4-yl)thiazol-2-amine] | 2 | – | 15 ± 3 | – | – | 2.5 | 8 |
| Oc1c2ccccc2c2c3c(cccc13)N=N2 [SP600125, reference compound] | – | – | 171 ± 36 | – | – | – | – |

Now from value to molecule:

| IC50 (p38α MAPK) [nM] | inhibition at 10 µM (p38α MAPK) [%] | IC50 (JNK3) [nM] | fold higher activity for p38α MAPK than for JNK3 (p38α MAPK; ratio of IC50 values) [fold] | inhibition at 10 µM (JNK3; read-out: Percent inhibition of JNK3 at indicated concentration) [%] | fold increase in inhibitory activity for JNK3 (JNK3; [1]) [fold] | fold increase in inhibitory activity for p38α MAPK (p38α MAPK; [1]) [fold] | SMILES |
| --- | --- | --- | --- | --- | --- | --- | --- |
| 2260 | – | 1760 | – | – | – | – | c1cc(-c2[nH]cnc2C2CCC2)cc(Nc2ccc(N3CCOCC3)cc2)n1 [Compound 18i, 4-(4-Cyclobutyl-1H-imidazol-5-yl)-N-(4-morpholinophenyl)pyridin-2-amine] |
| > 10000 | 38 | 1100 | – | – | – | – | CCc1nc(SC)[nH]c1-c1ccnc(Nc2ccc(N3CCOCC3)cc2)c1 [Compound 45, 4-(4-Ethyl-2-(methylthio)-1H-imidazol-5-yl)-N-(4-morpholinophenyl)pyridin-2-amine] |
| 4020 | – | 1080 | – | – | – | – | c1cc(-c2[nH]cnc2C2CC2)cc(Nc2ccc(N3CCOCC3)cc2)n1 [Compound 18j, 4-(4-Cyclopropyl-1H-imidazol-5-yl)-N-(4-morpholinophenyl)pyridin-2-amine] |
| 3460 | – | 7610 | – | – | – | – | CSc1nc(C)c(-c2ccnc(NC(C)c3ccccc3)c2)[nH]1 (stereo not drawn) [Compound 48b, 4-(4-Methyl-2-(methylthio)-1H-imidazol-5-yl)-N-(1-phenylethyl)pyridin-2-amine] |
| > 10000 | 13 | – | – | – | – | – | CSc1nc(C)c(-c2ccnc(N[C@H]3CC[C@H](NC(=O)C(C)(C)C)CC3)c2)[nH]1 [Compound 48l, N-(trans-4-((4-(4-Methyl-2-(methylthio)-1H-imidazol-5-yl)pyridin-2-yl)amino)cyclohexyl)pivalamide] |
| > 10000 | 37 | 819 ± 141 | – | – | – | – | CSc1nc(C)c(-c2ccnc(N[C@H]3CC[C@H](NC(C)=O)CC3)c2)[nH]1 [Compound 48i, N-(trans-4-((4-(4-Methyl-2-(methylthio)-1H-imidazol-5-yl)pyridin-2-yl)amino)cyclohexyl)acetamide] |
| > 10000 | 27 | – | – | – | – | – | CSc1nc(C)c(-c2ccnc(NC3CCOCC3)c2)[nH]1 [Compound 48f, 4-(4-Methyl-2-(methylthio)-1H-imidazol-5-yl)-N-(tetrahydro-2H-pyran-4-yl)pyridin-2-amine] |
| > 10000 | 34 | 2590 | – | – | – | – | CSc1nc(C)c(-c2ccnc(NC(C)C(C)C)c2)[nH]1 (stereo not drawn) [Compound 48a, 4-(4-Methyl-2-(methylthio)-1H-imidazol-5-yl)-N-(3-methylbutan-2-yl)pyridin-2-amine] |
| > 10000 | 33 | 432 ± 37 | – | – | – | – | CSc1nc(C)c(-c2ccnc(Nc3ccc(NC(=O)c4ccccc4)cc3)c2)[nH]1 [Compound 48o, N-(4-((4-(4-Methyl-2-(methylthio)-1H-imidazol-5-yl)pyridin-2-yl)amino)phenyl)benzamide] |
| > 10000 | 27 | 1540 | – | – | – | – | CSc1nc(C)c(-c2ccnc(Nc3ccc(NC(=O)C4CCCCC4)cc3)c2)[nH]1 [Compound 48p, N-(4-((4-(4-Methyl-2-(methylthio)-1H-imidazol-5-yl)pyridin-2-yl)amino)phenyl)cyclohexanecarboxamide] |
| > 10000 | 41 | 833 ± 139 | – | – | – | – | Cc1nc[nH]c1-c1ccnc(Nc2ccc(N3CCOCC3)cc2)c1 [Compound 38, 4-(4-Methyl-1H-imidazol-5-yl)-N-(4-morpholinophenyl)pyridin-2-amine] |
| > 10000 | 10 | 2230 | – | – | – | – | CSc1nc(C)c(-c2ccnc(N[C@H]3CC[C@H](NC(=O)C4CCCCC4)CC3)c2)[nH]1 [Compound 48k, N-(trans-4-((4-(4-Methyl-2-(methylthio)-1H-imidazol-5-yl)pyridin-2-yl)amino)cyclohexyl)cyclohexanecarboxamide] |
| > 10000 | 47 | 1570 | – | – | – | – | CSc1nc(C)c(-c2ccnc(NC3CCCC3)c2)[nH]1 [Compound 48d, N-Cyclopentyl-4-(4-methyl-2-(methylthio)-1H-imidazol-5-yl)pyridin-2-amine] |
| 17 ± 1 | – | 38 ± 2 | – | – | – | – | CSc1nc(-c2ccc(F)cc2)c(-c2ccnc(Nc3ccc(N4CCOCC4)cc3)c2)[nH]1 [Compound 5, 4-(4-(4-Fluorophenyl)-2-(methylthio)-1H-imidazol-5-yl)-N-(4-morpholinophenyl)pyridin-2-amine] |
| > 10000 | 35 | 457 ± 72 | – | – | – | – | CSc1nc(C)c(-c2ccnc(N[C@H]3CC[C@H](O)CC3)c2)[nH]1 [Compound 48g, trans-4-((4-(4-Methyl-2-(methylthio)-1H-imidazol-5-yl)pyridin-2-yl)amino)cyclohexan-1-ol] |
| > 10000 | 15 | 2370 | – | – | – | – | CSc1nc(C)c(-c2ccnc(Nc3ccc(NC(=O)C(C)(C)C)cc3)c2)[nH]1 [Compound 48q, N-(4-((4-(4-Methyl-2-(methylthio)-1H-imidazol-5-yl)pyridin-2-yl)amino)phenyl)pivalamide] |
| > 10000 | 12 | – | – | – | – | – | CSc1nc(C)c(-c2ccnc(N[C@H]3CC[C@H](NC(=O)c4ccccc4)CC3)c2)[nH]1 [Compound 48j, N-(trans-4-((4-(4-Methyl-2-(methylthio)-1H-imidazol-5-yl)pyridin-2-yl)amino)cyclohexyl)benzamide] |
